Test results: article PMC11002876, “KcsA-Kv1.x chimeras with complete ligand-binding sites provide improved predictivity for screening selective Kv1.x blockers” (The Journal of Biological Chemistry, 2024)
pIC50: −log10 of the molar value. Where a SMILES comes first, the peptide text is derived from it.

Legend:
[1] = test system: human Kv1.3; conditions: cited from earlier work; for pIC50: human Kv1.3 channel blocking, patch-clamp, read-out: IC50, Kv1.x blocking (Kv1.3)
Excerpt: Table 1 Summary of chimeric protein-binding prediction studies in the light of IC50 values | column: Kv1.x blocking / IC50 (nM) || Peptide toxins of venomous animal origin as lead molecules for optimization may offer an advantage over small molecules in terms of potentially greater affinity and specificity. These miniproteins are usually up to 50 amino acids in length and can adopt distinct conformation with secondary structural elements stabilized by several disulfide bonds ([9], [10], [11]). Due to their considerable surface area, miniproteins can form stable complexes with target proteins through extensive interaction surfaces ([12], [13]). The miniprotein Kv1.3 blocker drug candidate, Dalazatide—a synthetic derivative ... || Our initial investigation focused on assessing the relative binding affinities of various channel-blocking toxins to the T-only version of the KcsA-Kv1.3 chimera. Subsequently, we evaluated whether these affinities aligned with the toxins' blocking efficacy on native human Kv1.3 channels, as determined by patch-clamp assay.

[2] = test system: human Kv1.1; conditions: cited from earlier work
[3] = molecular target: T1, KcsA-Kv1.2 T-only chimera (Streptomyces lividans, UniProt P0A334, R52A/G53D/A54E/P55R/G56E/A57S/L59F/I60P/T61S/Y62I/R64D); test: Phage ELISA-binding assay, KcsA-Kv1.2 T-only; design: species or system human Kv1.2 turret in Streptomyces lividans KcsA; conditions: toxin displayed on M13 phage, Fig. 7C
T1 sequence (P0A334 1-160 R52A/G53D/A54E/P55R/G56E/A57S/L59F/I60P/T61S/Y62I/R64D): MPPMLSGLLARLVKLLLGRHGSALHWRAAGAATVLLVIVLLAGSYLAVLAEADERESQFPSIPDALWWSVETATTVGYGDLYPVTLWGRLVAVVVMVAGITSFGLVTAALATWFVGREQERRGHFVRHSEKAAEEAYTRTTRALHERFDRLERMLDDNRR
Method: Phage display test solutions were prepared according to routine phage display protocols ([62]). Phosphorylated and annealed oligonucleotides encoding the peptide construct were ligated into linearized pAS62 phagemid vector (https://patents.google.com/patent/WO2022144560A1/en) at a vector/insert ratio of 1:3. The final phagemid construct harbored a signal sequence followed by the peptide of interest, a linker sequence ([…]), and the C-terminal part of the P3 coat protein (amino acids: 216-424 of NP_510891.1). Chemically competent XL1-Blue E. coli cells (2022249, Agilent) were transformed with the ligation product and then streaked onto ampicillin (100 μg/ml) containing LB/Amp plates and incubated for 16 h at 37 °C. A few clones were sequenced, and a single colony with confirmed target sequence was inoculated into 3 ml 2 YT medium supplemented with 100 μg/ml ampicillin and incubated at 37 °C until the culture reached midlog phase. The culture was infected with M13KO7 helper phage (N0315S, New England Biolabs) (phage/cell ratio 10:1) and was incubated for 30 min at 37 °C. The 3 ml culture was transferred into 200 ml 2YT medium, supplemented with 100 μg/ml ampicillin and 25 μg/ml kanamycin, and incubated overnight at 37 °C. The overnight cell culture (200 ml) was pelleted by centrifugation at 8000g for 10 min in 400 ml centrifuge tubes at 4 °C. […] The particle concentrations of phage solutions were determined using a NanoDrop One C (Thermo Fisher Scientific) spectrophotometer. The phage particle concentration was assessed according to the formula: (A268–A320) × 5 × 10^12 particles/ml ([62]). […]
Phage stock solutions were diluted to working concentration with phage resuspension buffer supplemented with 2 mM DDM. […] Following blocking, the wells were washed 4× with washing buffer (300 μl TBS-Tween, 0.1% v/v) using a Wellwash Versa microplate washer (Thermo Fisher Scientific); then 50 μl phage solution (in TBS-BSA-Tween, 0.1% v/v, 2 mM DDM) at determined phage concentration was added to the wells and incubated for 1 h at room temperature on a horizontal shaker. […]

SMILES	inhibition of Kv1.3, in words [1]	pIC50 [1]	inhibition of Kv1.1, in words [2]	phage binding to KcsA-Kv1.2 T-only, in words [3]	pIC50 ([2]; human Kv1.1 channel blocking, patch-clamp, read-out: IC50, Kv1.x blocking (Kv1.1))
CC[C@H](C)[C@@H]1NC(=O)CNC(=O)[C@H](Cc2ccccc2)NC(=O)[C@H](CCC(N)=O)NC(=O)[C@H](C)NC(=O)[C@H](CCCCN)NC(=O)[C@@H]2CSSC[C@@H](C(=O)N[C@@H](Cc3ccc(O)cc3)C(=O)N3CCC[C@H]3C(=O)N[C@@H](Cc3c[nH]cn3)C(=O)O)NC(=O)[C@H](CCCCN)NC(=O)[C@@H]3CSSC[C@H](NC(=O)[C@H](CCC(N)=O)NC(=O)[C@H](CCCCN)NC(=O)[C@@H]4CCCN4C(=O)[C@H](CO)NC(=O)[C@H]([C@@H](C)O)NC(=O)[C@@H](NC(=O)[C@H](CCCCN)NC(=O)[C@@H](NC(=O)[C@H](CC(=O)O)NC(=O)[C@@H](NC(=O)[C@@H](NC(=O)[C@@H](N)[C@@H](C)O)C(C)C)[C@@H](C)CC)C(C)C)CSSC[C@H](NC(=O)[C@H](CCCCN)NC(=O)[C@H](C)NC(=O)CNC(=O)[C@H](C)NC(=O)[C@H](CCCNC(=N)N)NC1=O)C(=O)N[C@@H](CCSC)C(=O)N[C@@H](CC(N)=O)C(=O)NCC(=O)N[C@@H](CCCCN)C(=O)N3)C(=O)N[C@@H](CC(C)C)C(=O)N1CCC[C@H]1C(=O)N1CCC[C@H]1C(=O)N2 [HgTx1, Hongotoxin-1] (HELM PEPTIDE1{T.V.I.D.V.K.C.T.S.P.K.Q.C.L.P.P.C.K.A.Q.F.G.I.R.A.G.A.K.C.M.N.G.K.C.K.C.Y.P.H}$PEPTIDE1,PEPTIDE1,7:R3-29:R3|PEPTIDE1,PEPTIDE1,13:R3-34:R3|PEPTIDE1,PEPTIDE1,17:R3-36:R3$$$V2.0; N-terminus and C-terminus assumed)	equivalent high potency	10.07	equivalent high potency		
CC[C@H](C)[C@@H]1NC(=O)[C@@H]2CSSC[C@H](NC(=O)[C@H](CO)NC(=O)[C@@H](N)C(C)C)C(=O)N[C@@H]([C@@H](C)O)C(=O)NCC(=O)N[C@@H](CO)C(=O)N[C@@H](CCCCN)C(=O)N[C@@H](CC(=O)O)C(=O)N[C@@H](CSSC[C@@H](C(=O)N[C@@H](CCCCN)C(=O)N[C@H]3CSSC[C@@H](C(N)=O)NC(=O)CNC(=O)[C@H](Cc4ccc(O)cc4)NC3=O)NC(=O)[C@H](CO)NC(=O)[C@H](CCCCN)NC(=O)[C@H](CC(N)=O)NC1=O)C(=O)N[C@@H](Cc1ccc(O)cc1)C(=O)N[C@@H](C)C(=O)N1CCC[C@H]1C(=O)N[C@H]1CSSC[C@H](NC(=O)CNC(=O)[C@H]([C@@H](C)O)NC(=O)[C@H](CCC(N)=O)NC(=O)[C@H](CCCCN)NC(=O)[C@H](CCCNC(=N)N)NC1=O)C(=O)N1CCC[C@H]1C(=O)N[C@@H](CC(N)=O)C(=O)N[C@@H](C)C(=O)N[C@@H](CCCCN)C(=O)N2 [MTX, Maurotoxin] (HELM PEPTIDE1{V.S.C.T.G.S.K.D.C.Y.A.P.C.R.K.Q.T.G.C.P.N.A.K.C.I.N.K.S.C.K.C.Y.G.C.[am]}$PEPTIDE1,PEPTIDE1,3:R3-24:R3|PEPTIDE1,PEPTIDE1,9:R3-29:R3|PEPTIDE1,PEPTIDE1,13:R3-19:R3|PEPTIDE1,PEPTIDE1,31:R3-34:R3$$$V2.0; N-terminus and C-terminus assumed)				negligible binding	< 7.00
CC[C@H](C)[C@@H]1NC(=O)[C@@H](NC(=O)[C@H](CO)NC(=O)[C@@H](N)CCCNC(=N)N)CSSC[C@@H](C(=O)O)NC(=O)[C@H]([C@@H](C)O)NC(=O)CNC(=O)[C@@H]2CSSC[C@@H]3NC(=O)[C@H](CCC(N)=O)NC(=O)[C@H](Cc4ccccc4)NC(=O)[C@H](C)NC(=O)[C@H]([C@@H](C)O)NC(=O)[C@H](CSSC[C@H](NC(=O)[C@H](Cc4ccccc4)NC(=O)[C@H](CO)NC(=O)[C@H](CC(C)C)NC(=O)[C@H](CCCNC(=N)N)NC(=O)[C@H](Cc4ccc(O)cc4)NC(=O)[C@H](CCCCN)NC(=O)[C@H](CCSC)NC(=O)[C@H](CO)NC(=O)[C@H](Cc4c[nH]cn4)NC(=O)[C@H](CCCCN)NC3=O)C(=O)N[C@@H](CCCNC(=N)N)C(=O)N[C@@H](CCCCN)C(=O)N[C@@H]([C@@H](C)O)C(=O)N2)NC(=O)[C@H](CCCNC(=N)N)NC(=O)[C@H](CO)NC(=O)[C@H](CCCCN)NC(=O)[C@@H]2CCCN2C(=O)[C@H]([C@@H](C)CC)NC(=O)[C@H]([C@@H](C)O)NC(=O)[C@H](CC(=O)O)NC1=O [ShK, Stichodactyla toxin]				inconsistent with their published channel blocking potencies	
CC[C@H](C)[C@H](NC(=O)[C@H](C)NC(=O)[C@H](C)NC(=O)[C@H](C)N)C(=O)N[C@@H](CO)C(=O)N[C@H]1CSSC[C@@H]2NC(=O)[C@H](CCCCN)NC(=O)CNC(=O)[C@H](CC(N)=O)NC(=O)[C@H](CCCCN)NC(=O)[C@@H]3CSSC[C@@H](C(N)=O)NC(=O)[C@H](Cc4ccc(O)cc4)NC(=O)[C@H](Cc4ccc(O)cc4)NC(=O)[C@@H]4CSSC[C@H](NC(=O)[C@H](CCCCN)NC(=O)[C@@H]5CCCN5C(=O)[C@@H]5CCCN5C(=O)[C@H](CSSC[C@H](NC(=O)[C@H](CCCCN)NC(=O)[C@H](CCCNC(=N)N)NC(=O)[C@H](CC(N)=O)NC(=O)[C@H](CCSC)NC2=O)C(=O)N[C@@H](CCCCN)C(=O)N4)NC(=O)[C@H](CCC(=O)O)NC(=O)[C@@H]2CCCN2C(=O)[C@H](CO)NC(=O)CNC(=O)[C@H](C(C)C)NC1=O)C(=O)N[C@@H](CCCNC(=N)N)C(=O)N[C@@H](C)C(=O)N[C@@H](CCC(N)=O)C(=O)NCC(=O)N3 [Vm24, Vm24 toxin]		11.52			
